Test results as given in ChEMBL document CHEMBL3611970, “Synthesis and evaluation of isatin-β-thiosemicarbazones as novel agents against antibiotic-resistant Gram-positive bacterial species” (2015).
Converted amounts (≈) assume the structure as drawn.

Tests used:
Type in all cases: functional
Bacillus spizizenii = experiment: Antimicrobial activity against Bacillus subtilis ATCC 6633 after 16 hrs by broth microdilution method; settings: ATCC 6633, 16 h
Staphylococcus aureus [1] = experiment: Antimicrobial activity against methicillin-resistant Staphylococcus aureus 309-7 clinical isolate after 16 hrs by broth microdilution method; settings: 309-7, 16 h
Staphylococcus aureus [2] = experiment: Antimicrobial activity against methicillin-resistant Staphylococcus aureus 8-24 clinical isolate after 16 hrs by broth microdilution method; settings: 8-24, 16 h
Staphylococcus aureus [3] = experiment: Antimicrobial activity against methicillin-resistant Staphylococcus aureus 309-4 clinical isolate after 16 hrs by broth microdilution method; settings: 309-4, 16 h
Klebsiella pneumoniae = experiment: Antimicrobial activity against Klebsiella pneumoniae KP-249 clinical isolate after 16 hrs by broth microdilution method; settings: KP-249, 16 h
Staphylococcus aureus [4] = experiment: Antimicrobial activity against methicillin-resistant Staphylococcus aureus 6281 clinical isolate after 16 hrs by broth microdilution method; settings: Staphylococcus aureus, 6281, 16 h
Staphylococcus aureus [5] = experiment: Antimicrobial activity against Staphylococcus aureus ATCC 6538 after 16 hrs by broth microdilution method; settings: ATCC 6538, 16 h
Staphylococcus aureus [6] = experiment: Antimicrobial activity against methicillin-resistant Staphylococcus aureus 309-3 clinical isolate after 16 hrs by broth microdilution method; settings: 309-3, 16 h
Staphylococcus aureus [7] = experiment: Antimicrobial activity against methicillin-resistant Staphylococcus aureus 309-6 clinical isolate after 16 hrs by broth microdilution method; settings: 309-6, 16 h
Staphylococcus aureus [8] = experiment: Antimicrobial activity against methicillin-resistant Staphylococcus aureus 309-1 clinical isolate after 16 hrs by broth microdilution method; settings: 309-1, 16 h
Staphylococcus aureus [9] = experiment: Antimicrobial activity against methicillin-resistant Staphylococcus aureus 309-8 clinical isolate after 16 hrs by broth microdilution method; settings: 309-8, 16 h
Staphylococcus aureus [10] = experiment: Antimicrobial activity against methicillin-resistant Staphylococcus aureus 8-21 clinical isolate after 16 hrs by broth microdilution method; settings: 8-21, 16 h
Staphylococcus aureus [11] = experiment: Antimicrobial activity against methicillin-resistant Staphylococcus aureus Chaoyang clinical isolate after 16 hrs by broth microdilution method
Enterococcus faecalis [12] = experiment: Antimicrobial activity against Enterococcus faecalis VRE-309 after 16 hrs by broth microdilution method; settings: VRE-309, 16 h
Pseudomonas aeruginosa = experiment: Antimicrobial activity against Pseudomonas aeruginosa PAO1 after 16 hrs by broth microdilution method; settings: PAO1, 16 h
Enterococcus faecalis [13] = experiment: Antimicrobial activity against vancomycin-susceptible Enterococcus faecalis after 16 hrs by broth microdilution method
Staphylococcus aureus [14] = experiment: Antimicrobial activity against methicillin-resistant Staphylococcus aureus 6-42 clinical isolate after 16 hrs by broth microdilution method; settings: 6-42, 16 h

| Compound | MIC (Bacillus spizizenii) [µg/mL] | MIC (Staphylococcus aureus [1]) [µg/mL] | MIC (Staphylococcus aureus [2]) [µg/mL] | MIC (Staphylococcus aureus [3]) [µg/mL] | MIC (Klebsiella pneumoniae) [µg/mL] | MIC (Staphylococcus aureus [4]) [µg/mL] | MIC (Staphylococcus aureus [5]) [µg/mL] | MIC (Staphylococcus aureus [6]) [µg/mL] | MIC (Staphylococcus aureus [7]) [µg/mL] | MIC (Staphylococcus aureus [8]) [µg/mL] | MIC (Staphylococcus aureus [9]) [µg/mL] | MIC (Staphylococcus aureus [10]) [µg/mL] | MIC (Staphylococcus aureus [11]) [µg/mL] | MIC (Enterococcus faecalis [12]) [µg/mL] | MIC (Pseudomonas aeruginosa) [µg/mL] | MIC (Enterococcus faecalis [13]) [µg/mL] | MIC (Staphylococcus aureus [14]) [µg/mL] |
| --- | --- | --- | --- | --- | --- | --- | --- | --- | --- | --- | --- | --- | --- | --- | --- | --- | --- |
| O=C1Nc2c(Br)cccc2/C1=N/NC(=S)Nc1ccc(F)cc1 | ≤ 0.78 | 0.39 (≈ 0.992 µM) | 1.56 (≈ 3.97 µM) | 0.78 (≈ 1.98 µM) | > 100 | 1.56 (≈ 3.97 µM) | 1.56 (≈ 3.97 µM) | 0.78 (≈ 1.98 µM) | 1.56 (≈ 3.97 µM) | 0.78 (≈ 1.98 µM) | 0.78 (≈ 1.98 µM) | 0.78 (≈ 1.98 µM) | 0.39 (≈ 0.992 µM) | 1.56 (≈ 3.97 µM) | > 100 | 3.12 (≈ 7.93 µM) | 0.78 (≈ 1.98 µM) |
| Cc1cccc(NC(=S)N/N=C2\C(=O)Nc3c(I)cccc32)c1 | ≤ 0.78 | 0.78 (≈ 1.79 µM) | 1.56 (≈ 3.58 µM) | 1.56 (≈ 3.58 µM) | > 100 | 6.25 (≈ 14.3 µM) | 3.12 (≈ 7.15 µM) | 3.12 (≈ 7.15 µM) | 3.12 (≈ 7.15 µM) | 1.56 (≈ 3.58 µM) | 1.56 (≈ 3.58 µM) | 1.56 (≈ 3.58 µM) | 0.78 (≈ 1.79 µM) | 3.12 (≈ 7.15 µM) | > 100 | 12.5 (≈ 28.7 µM) | 1.56 (≈ 3.58 µM) |
| O=C1Nc2ccc(Br)cc2/C1=N/NC(=S)Nc1ccccc1 | ≤ 0.78 |  |  |  |  |  | 6.25 (≈ 16.7 µM) |  |  |  |  |  | 6.25 (≈ 16.7 µM) |  |  |  |  |
| COc1ccc(NC(=S)N/N=C2\C(=O)Nc3c(I)cccc32)cc1 | 3.12 (≈ 6.9 µM) | 1.56 (≈ 3.45 µM) | 6.25 (≈ 13.8 µM) | 6.25 (≈ 13.8 µM) | > 100 | 12.5 (≈ 27.6 µM) | > 100 | 12.5 (≈ 27.6 µM) | 25 (≈ 55.3 µM) | 6.25 (≈ 13.8 µM) | 6.25 (≈ 13.8 µM) | 6.25 (≈ 13.8 µM) | 1.56 (≈ 3.45 µM) | > 100 | > 100 | > 100 | 3.12 (≈ 6.9 µM) |
| O=C1Nc2ccc(F)cc2/C1=N/NC(=S)Nc1ccc(F)cc1 | 25 (≈ 75.2 µM) |  |  |  |  |  | 25 (≈ 75.2 µM) |  |  |  |  |  | 25 (≈ 75.2 µM) |  |  |  |  |
| CN[C@H](CC(C)C)C(=O)N[C@H]1C(=O)N[C@@H](CC(N)=O)C(=O)N[C@H]2C(=O)N[C@H]3C(=O)N[C@H](C(=O)N[C@H](C(=O)O)c4cc(O)cc(O)c4-c4cc3ccc4O)[C@H](O)c3ccc(c(Cl)c3)Oc3cc2cc(c3O[C@@H]2O[C@H](CO)[C@@H](O)[C@H](O)[C@H]2O[C@H]2C[C@](C)(N)[C@H](O)[C@H](C)O2)Oc2ccc(cc2Cl)[C@H]1O [VANCOMYCIN] | 0.5 (≈ 0.345 µM) |  |  |  |  |  |  |  |  |  |  |  |  | > 8 |  | 2 (≈ 1.38 µM) |  |
| COc1cccc(OC)c1C(=O)N[C@@H]1C(=O)N2[C@@H]1SC(C)(C)[C@@H]2C(=O)O [METHICILLIN] |  | > 200 | > 200 | > 200 |  | > 200 |  | > 200 | > 200 | > 200 | > 200 | > 200 |  |  |  |  | > 200 |
| O=C1Nc2ccc(Cl)cc2/C1=N/NC(=S)Nc1ccc(F)cc1 | 6.25 (≈ 17.9 µM) |  |  |  |  |  | 12.5 (≈ 35.8 µM) |  |  |  |  |  | 3.12 (≈ 8.95 µM) |  |  |  |  |
| O=C1Nc2c(F)cccc2/C1=N/NC(=S)Nc1cccc(F)c1 | ≤ 0.78 | 0.39 (≈ 1.17 µM) | 0.78 (≈ 2.35 µM) | 0.39 (≈ 1.17 µM) | > 100 | 1.56 (≈ 4.69 µM) | 0.78 (≈ 2.35 µM) | 0.78 (≈ 2.35 µM) | 1.56 (≈ 4.69 µM) | 0.78 (≈ 2.35 µM) | 0.78 (≈ 2.35 µM) | 0.78 (≈ 2.35 µM) | 0.39 (≈ 1.17 µM) | 1.56 (≈ 4.69 µM) | > 100 |  | 0.39 (≈ 1.17 µM) |
| O=C1Nc2ccccc2/C1=N/NC(=S)Nc1ccccc1 | 1.56 (≈ 5.26 µM) |  |  |  |  |  | 3.12 (≈ 10.5 µM) |  |  |  |  |  | 3.12 (≈ 10.5 µM) |  |  |  |  |
| O=C1Nc2ccc([N+](=O)[O-])cc2/C1=N/NC(=S)Nc1ccc(F)cc1 | 25 (≈ 69.6 µM) |  |  |  |  |  | 6.25 (≈ 17.4 µM) |  |  |  |  |  | 12.5 (≈ 34.8 µM) |  |  |  |  |
| O=C1Nc2ccccc2/C1=N/NC(=S)Nc1ccc(F)cc1 | 1.56 (≈ 4.96 µM) |  |  |  |  |  | 6.25 (≈ 19.9 µM) |  |  |  |  |  | 3.12 (≈ 9.93 µM) |  |  |  |  |
| O=C1Nc2c(Br)cc([N+](=O)[O-])cc2/C1=N/NC(=S)Nc1ccc(F)cc1 | ≤ 0.78 |  |  |  |  |  | 1.56 (≈ 3.56 µM) |  |  |  |  |  | 3.12 (≈ 7.12 µM) |  |  |  |  |
